According to US10639277B1, “Multi-functional echogenic immunoliposomes for directed stem cell delivery to atheroma” (BOARD OF REGENTS OF THE UNIVERSITY OF TEXAS SYSTEM, priority 2009, dated 2020):

Experiments:
canine fetal myoblasts = test: SDF-1 induced transwell cell migration; assay type: cell-based; conditions: 30 μM
Description: Cells were placed at a concentration of 5×10^4/well in the upper chamber (BD Biosciences), and the chamber was placed in a 24-well culture plate (BD Biosciences) containing culture medium and 100 nM SDF-1 for measuring the migratory capacity of myoblast cells. After 48 hours of incubation at 37° C., the medium was removed, and the insert was transferred to a second plate containing Calcein-AM solution. The plates were incubated for 90 minutes at 37° C. in a 5% CO2 incubator. The fluorescence of migrating cells was read in a fluorescence microplate reader with bottom reading capabilities at excitation/emission wavelengths of 485/530 nm. […] Apoj expression can also provide protection against apoptotic stem cell death. This finding is consistent with published results that ApoJ expression can provide some protection against apoptotic cell death. Exposure to oxidized cholesterol or oxysterol often triggers apoptosis in a variety of cells and atheroma contains abundant oxysterols such as 7-ketocholsterol. Therefore, a study was done to establish that ApoJ expression will exert protective effects against apoptotic cell death for stem cells. After incubation of vascular smooth muscle cells from the aorta of ApoJ-knockout mice or wild-type mice with 10 μg/ml 7-ketocholsterol for 24-48 the cells were examined for viability by stained with a combination of acridine orange and ethidium bromide. […]

KG-293 cells = test: TCN-induced ApoJ expression and TNF-α induced apoptosis in KG-293 cells; assay type: cell-based, human; conditions: 10 ng/ml for 24- and 48-hours
From the text: Recent studies have shown that ApoJ can be induced by certain growth factors such as TGF-ß translocate to the nucleus participating in apoptosis regulation. To determine whether intracellular expression of ApoJ inhibits receptor-mediated apoptosis induced by cytokines, we constructed a plasmid (pkS7) with ApoJ cDNA insert lacking the sequence for the domain of protein secretion. The non-secreted, intracellular isoform of ApoJ gene mimics the intracellular isoform inducible by TGF-ß. Under regulation by a CMV promoter with TCN-responding elements, pKS7 transfection of HEK293 cells generated a stable cell line (KG-293) with ApoJ over expression. […] KG-293 cells over expressing the intracellular form of ApoJ also underwent dramatic alterations in morphology and proliferation.

Row | Molecule | effect on SDF-1 induced migration of ApoJ-overexpressing myoblasts (canine fetal myoblasts) | apoptosis in control KG-293 cells not exposed to TCN (KG-293 cells)
1 | COc1cccc(-c2cc(=O)c3ccccc3o2)c1N [PD98059] | did not have any significant impact | –
2 | TNF-α | – | marked apoptosis
